Experimental data published in patent publication US20190298664A1, “METHOD AND KIT FOR MYOCARDIAL REPERFUSION, AND METHOD FOR ATTENUATING OR REDUCING MYOCARDIAL REPERFUSION INJURY” (Academia Sinica, priority 2018, published 2019).

Tests used:
Type in all cases: in vivo, mouse
Conditions in all cases: PVS 5 mg/kg intramyocardial at beginning of ischemia; ischemia 1 h, reperfusion 4 h
[1] = system: myocardial protein tyrosine phosphorylation; experiment: Immunoblotting of heart extracts of I/R mice (anti-pTyr, p-Paxillin, p-p130cas, p-ErbB-2)
Procedure: (§1) We anesthetized the mouse with 5% isoflurane mixed with room air until loss of sensation of pain and then maintained the mouse in anesthesia status with 2% isoflurane mixed with room air through the whole procedure. The mouse's body temperature was maintained at 37° C. by a heating pad. After the mouse was intubated, we provided artificial ventilation to the mouse with a small animal ventilator. Then the chest cavity was opened at the second intercostal space and homemade chest retractors were utilized to widen the incision. We pulled the pericardium apart carefully and exposed the left anterior descending artery (LAD). A 7-0 silk was put underneath the LAD at the position of the tip of the left auricle, a 6 mm length of PE-10 tube was put on the surface of the LAD, and then a double knot was made to occlude the blood flow of LAD. The success of ligation was confirmed by paling the anterior wall of the LV. For the reperfusion group, the LAD knot would be untied for the purpose of reperfusion after 1 hour of ischemia. For the sham operation group, all procedures were the same except for the knot that occluded the LAD flow. After the successful procedure, we left the silk in situ, closed the chest cavity and weaned the animal from the ventilator.
Hearts from mice received different treatment were gently homogenized in ice-cold RIPA buffer [250 mM Tris-HCl pH 7.4, 750 mM NaCl, detergent mix (5% NP-40, 2.5% Na-deoxycholate and 0.5% SDS), and 1× protease inhibitor cocktail (EDTA free)] containing phosphatase inhibitors (2 mM Na3VO4, 10 mM NaF, and 10 mM Na2P2O7). The homogenates were centrifuged at 16,100×g at 4° C. for 10 minutes to remove the debris. Protein concentrations were determined by Bradford protein assay. Equal amounts of protein extract from those mice were separated by SDS-PAGE on an 8% or 10% polyacrylamide gel and then transferred to PVDF membrane. Membranes were incubated with indicated primary antibody at 4° C. overnight followed by incubated with secondary antibodies for 1 hour at room temperature. The protein abundance was detected by the signal intensity of each specific band.

I/R mice [2] = experiment: Myocardial infarct size (Evans blue/TTC staining) in I/R mice
Procedure: as §1
At the end of experiment, the animal was sacrificed. We opened the chest cavity and exposed the heart and aorta. The heart was perfused with 0.9% saline from the apex until the coronary vessels and myocardium turning into pale color. After saline perfusion, the LAD knot was tied again. 1 mL of 1% Evans blue dye was delivered into the heart through the aortic root by retrograde injection. The dye uniformly perfused the whole heart except in the area of the heart previously perfused by the occluded coronary artery (area at risk, AAR). Then the heart was quickly removed, washed in ice-cold 0.9% saline followed by frozen at −20° C. for 20 minutes, then cut into slices of 1 mm with heart matrix. […] The areas stained with Evans blue negative but TTC-positive (AAR), and TTC-negative area (infarct area) were all measured digitally by ImageJ software. […]

I/R mice [3] = experiment: Serum troponin I measurement in I/R mice
Procedure: as §1
Before the mouse was sacrificed, blood was drawn from the facial vein. The blood was put in the room temperature for 30 minutes and then centrifuged at 4° C. for 15 minutes at 5000 rpm. After centrifuging, the serum is collected for troponin I measurement with troponin I ELISA kit (KT-469, Kamiya Biomedical Company) according to the manufacture's protocol.

Q: How did the “I/R-caused tyrosine dephosphorylation of myocardial proteins” value [1] turn out when C=CS(=O)(=O)c1ccccc1 [PVS, phenyl vinyl sulfone] was run?
A: Its value is “rebounded”.

Q: And the “Area of heart infarction” value (I/R mice [2])?
A: The value was “reduced”.

Q: And the “Release of troponin I into the blood” value (I/R mice [3])?
A: The value was “decreased”.
